From article PMC11818416, “Discovery of TRPV4-Targeting Small Molecules with Anti-Influenza Effects Through Machine Learning and Experimental Validation” (International Journal of Molecular Sciences, 2025)
Counter-ions that a name gives are not always drawn.

Legend:
[1] = CCK-8 cytotoxicity test on MDCK cells; settings: dog
Method: (§1) MDCK cells were inoculated in 96-well plates at 37 °C and 5% carbon dioxide for 12 h. The cell supernatant was discarded when the cell density reached 60–70%, and then different concentrations of drugs (0.1, 1, 10, 100 μM) were inoculated in the cell plates, moreover 3 repeat holes were set for each concentration gradient. After 48 h, cell viability was measured using cell counting kit-8 (Beyotime, C0039, CCK-8) depending on factory instructions. The absorbance at 450 nm for each pore was measured using an enzyme-linked immunosorbent plate reader, and half inhibitory concentration (CC50) value of cell viability were calculated by a nonlinear regression curve fitting analysis (Prism 8) of cell viability to the log10 conversion concentration value.

H1N1-UI182 = assay: Mice infected with lethal H1N1-UI182 virus: body weight, survival, lung index, lung viral titer, pathology, viral proteins; type: in vivo, BALB/c mice; settings: for rate of weight loss in virus-infected mice: 15-drug round, monitored 14 days (Figure 4A,B); for viral titers in the lung: Supplementary Figures S1C and S2C, comparable to the positive drugs; for survival rate of infected mice: 15-drug round (Figure 4C,D); for expression levels of viral proteins (NP, HA, M1) in lungs, WB: 15-drug round (Figure 4K,L); for lung injury (pathology): compared to other treatment groups and virus group, glecaprevir 30 mg/kg, everolimus 5 mg/kg (Figures S1, S2); for protection rate (survival of influenza-infected mice): H1N1-UI182 5 × LD50, BALB/c mice; for rate of weight loss at different concentrations / survival at different concentrations / dose dependence of the inhibitory effect on the virus (lung index, pulmonary viral load, pathological injury): oral
[2] = test system: NF-κB signaling pathway and inflammatory cytokines; assay: Inflammatory cytokine expression after H1N1-UI182 infection by WB and RT-qPCR; type: in vivo, mouse; settings: after H1N1-UI182 infection (Figure 6A-C)
in vitro = settings: dog
Method: as §1

H1N1-UI182 in 293T cells = type: cell-based, human
[3] = glecaprevir 10, 20, 40 mg/kg/day, everolimus 1, 5, 25 mg/kg/day
[4] = glecaprevir 10, 20, 40 mg/kg/day, everolimus 1, 5, 25 mg/kg/day, 5 dpi

NC[C@H]1O[C@H](O[C@H]2[C@H](O)[C@@H](O[C@H]3O[C@H](CO)[C@@H](O)[C@H](N)[C@H]3O)[C@H](N)C[C@@H]2N)[C@H](N)C[C@@H]1O [Tobramycin]
CC50 at 48 h ([1]; MDCK cells): > 100 µM

COC(=O)N[C@H](C(=O)N1CCC[C@H]1C(=O)Nc1ccc([C@@H]2CC[C@@H](c3ccc(NC(=O)[C@@H]4CCCN4C(=O)[C@@H](NC(=O)OC)C(C)C)cc3)N2c2ccc(C(C)(C)C)cc2)cc1)C(C)C [Ombitasvir]
CC50 at 48 h [1]: > 100 µM

C[C@H]1O[C@H](O[C@H]2[C@H](O)[C@@H](O)[C@@H](O[C@H]3[C@H](O)[C@@H](O)C(O)O[C@@H]3CO)O[C@@H]2CO)[C@H](O)[C@@H](O)[C@@H]1N[C@H]1C=C(CO)[C@@H](O)[C@H](O)[C@H]1O (stereo partly drawn) [Acarbose]
rate of weight loss in virus-infected mice (H1N1-UI182): significantly slowed the rate of weight loss
CC50 at 48 h ([1]; MDCK cells): > 100 µM

CNCC(=O)OCc1cccnc1N(C)C(=O)OC(C)[n+]1cnn(C[C@](O)(c2cc(F)ccc2F)[C@@H](C)c2nc(-c3ccc(C#N)cc3)cs2)c1 (stereo partly drawn) [Isavuconazonium]
CC50 at 48 h ([1]; MDCK cells): > 100 µM

CC(C)(C)[C@@H]1NC(=O)O[C@@H]2CCC[C@H]2OC/C=C/C(F)(F)c2nc3ccccc3nc2O[C@@H]2C[C@@H](C(=O)N[C@]3(C(=O)NS(=O)(=O)C4(C)CC4)C[C@H]3C(F)F)N(C2)C1=O [Glecaprevir]
viral titers in the lung (H1N1-UI182; 5 dpi): significantly reduced viral titers
survival rate of infected mice (H1N1-UI182): significantly improved the survival rate
expression levels of viral proteins (NP, HA, M1) in lungs, WB (H1N1-UI182): attenuated obviously
rate of weight loss in virus-infected mice (H1N1-UI182): significantly slowed the rate of weight loss
lung injury (pathology) (H1N1-UI182; 5 days after infection): noticeable signs of lung improvement
protection rate (survival of influenza-infected mice) (H1N1-UI182): 80%
expression of viral protein in mouse lungs at higher doses, WB (H1N1-UI182; glecaprevir 10, 20, 40 mg/kg/day (Figure 5K)): did not effectively inhibit the expression of viral protein at higher doses
lung lesions at higher concentrations (H1N1-UI182; glecaprevir 10, 20, 40 mg/kg/day, 5 dpi, H&E (Figure 5I)): higher concentrations did not alter the lung lesions
rate of weight loss at different concentrations (H1N1-UI182; [3]): observably retarded the rate of weight loss
survival at different concentrations (H1N1-UI182; [3]): improved survival in a concentration-dependent manner
dose dependence of the inhibitory effect on the virus (lung index, pulmonary viral load, pathological injury) (H1N1-UI182; [4]): did not display concentration-dependent characteristics
expression levels of phosphorylated NF-κB, IL-6, IL-10, IFN-β, TNF-α (WB) [2]: decreased
CC50 at 48 h (in vitro): 77.3 µM

CCC[C@H](NC(=O)[C@@H]1[C@H]2CCC[C@H]2CN1C(=O)[C@@H](NC(=O)[C@@H](NC(=O)c1cnccn1)C1CCCCC1)C(C)(C)C)C(=O)C(=O)NC1CC1 [Telaprevir]
CC50 at 48 h (in vitro): > 100 µM

CN[C@@H]1[C@@H](O)[C@@H](O[C@@H]2[C@@H](O)[C@H](O[C@H]3O[C@H](CN)[C@@H](O)[C@H](O)[C@H]3O)[C@@H](N)C[C@H]2NC(=O)[C@@H](O)CN)OC[C@]1(C)O [Isepamicin]
CC50 at 48 h ([1]; MDCK cells): > 100 µM

NC[C@@H]1O[C@H](O[C@H]2[C@@H](O)[C@H](O[C@@H]3[C@@H](O)[C@H](N)C[C@H](N)[C@H]3O[C@H]3O[C@H](CO)[C@@H](O)[C@H](O)[C@H]3N)O[C@@H]2CO)[C@H](N)[C@@H](O)[C@@H]1O [Paromomycin, Paromomycin sulfate]
CC50 at 48 h ([1]; MDCK cells): > 100 µM

CSCCNc1nc(SCCC(F)(F)F)nc2c1ncn2[C@@H]1O[C@H](COP(=O)(O)OP(=O)(O)C(Cl)(Cl)P(=O)(O)O)[C@@H](O)[C@H]1O [Cangrelor]
rate of weight loss in virus-infected mice (H1N1-UI182): significantly slowed the rate of weight loss
CC50 at 48 h (in vitro): > 100 µM

CCCCC(=O)OCC(=O)[C@]1(O)Cc2c(O)c3c(c(O)c2[C@@H](O[C@H]2C[C@H](NC(=O)C(F)(F)F)[C@H](O)[C@H](C)O2)C1)C(=O)c1c(OC)cccc1C3=O [Valrubicin]
CC50 at 48 h ([1]; MDCK cells): < 50 µM

C[C@@H]1O[C@@H](OC[C@H]2O[C@@H](Oc3c(-c4ccc(OCCO)c(OCCO)c4)oc4cc(OCCO)cc(O)c4c3=O)[C@H](O)[C@@H](O)[C@@H]2O)[C@H](O)[C@H](O)[C@H]1O [Troxerutin]
CC50 at 48 h ([1]; MDCK cells): < 50 µM

CO[C@H]1C[C@@H]2CC[C@@H](C)[C@@](O)(O2)C(=O)C(=O)N2CCCC[C@H]2C(=O)O[C@H]([C@H](C)C[C@@H]2CC[C@@H](OCCO)[C@H](OC)C2)CC(=O)[C@H](C)/C=C(\C)[C@@H](O)[C@@H](OC)C(=O)[C@H](C)C[C@H](C)/C=C/C=C/C=C/1C [Everolimus]
expression level of NP protein in normal 293T cells (WB) (H1N1-UI182 in 293T cells): higher in normal cells
expression of NP protein in TRPV4−/− 293T cells (WB) (H1N1-UI182 in 293T cells): significantly decreased
viral titers in the lung (H1N1-UI182; 5 dpi): significantly reduced viral titers
survival rate of infected mice (H1N1-UI182): significantly improved the survival rate
expression levels of viral proteins (NP, HA, M1) in lungs, WB (H1N1-UI182): attenuated obviously
rate of weight loss in virus-infected mice (H1N1-UI182): significantly slowed the rate of weight loss
viral load in the lungs (H1N1-UI182; 5 days after infection, compared to the viral group (Figure 4G-J)): evidently lower
lung injury (pathology) (H1N1-UI182; 5 days after infection): noticeable signs of lung improvement
protection rate (survival of influenza-infected mice) (H1N1-UI182): 100%
pulmonary viral load at different concentrations (H1N1-UI182; everolimus 1, 5, 25 mg/kg/day, 5 dpi (Figure 5H)): decreased notably with the increase of drug concentration
rate of weight loss at different concentrations (H1N1-UI182; [3]): observably retarded the rate of weight loss
survival at different concentrations (H1N1-UI182; [3]): improved survival in a concentration-dependent manner
dose dependence of the inhibitory effect on the virus (lung index, pulmonary viral load, pathological injury) (H1N1-UI182; [4]): meaningfully dose-dependent
expression levels of phosphorylated NF-κB, IL-6, IL-10, IFN-β, TNF-α (WB) [2]: decreased
CC50 at 48 h (in vitro): 78.2 µM

CC(/C=C/C=C(\C)C(=O)O[C@@H]1O[C@H](CO[C@@H]2O[C@H](CO)[C@@H](O)[C@H](O)[C@H]2O)[C@@H](O)[C@H](O)[C@H]1O)=C\C=C\C=C(C)\C=C\C=C(/C)C(=O)O[C@@H]1O[C@H](CO[C@@H]2O[C@H](CO)[C@@H](O)[C@H](O)[C@H]2O)[C@@H](O)[C@H](O)[C@H]1O [Crocin]
CC50 at 48 h ([1]; MDCK cells): > 100 µM

Cc1cc2nc3c(=O)[nH]c(=O)nc-3n(C[C@H](O)[C@H](O)[C@H](O)COP(=O)(O)OP(=O)(O)OC[C@H]3O[C@@H](n4cnc5c(N)ncnc54)[C@H](O)[C@@H]3O)c2cc1C [FAD]
CC50 (MDCK cells): < 50 µM
